Laboratory results taken from US20070088043A1, “Novel HDAC inhibitors” (ORCHID RESEARCH LABORATORIES LIMITED., priority 2005, published 2007).

How the values were obtained:
NCIH 460 cells = test: Anti-cancer screen (MTT), NCIH460; type: cell-based; conditions: Homo sapiens, NCI-H460, NCIH460 cells, 48 hours, MTT; for GI50: concentration to decrease % growth by 50%; for IC100: concentration to decrease % growth by 100%, read-out: NCIH460 TGI; for LC50: concentration to decrease % growth by 150%
Method: (§1) Experimental drugs are screened for anti-cancer activity in three cell lines for their GI50, TGI and LC50 values (using five concentrations for each compound). The cell lines are maintained in DMEM containing 10% fetal bovine serum. 96 well micro titer plates are inoculated with cells in 100 μL for 24 h at 37° C., 5% CO2, 95% air and 100% relative humidity. 5000 HCT 116 cells/well, 5000 NCIH 460 cells/well and 5000 U251 cells/well are plated. A separate plate with these cell lines is also inoculated to determine cell viability before the addition of the compounds (T0).
(§2) Following 24-hour incubation, experimental drugs are added to the 96 well plates. Each plate contains one of the above cell lines and the following in triplicate: five different concentrations (0.01, 0.1, 1, 10 and 100 μM) of four different compounds, appropriate dilutions of a cytotoxic standard and control (untreated) wells. Compounds are dissolved in DMSO to make 20 mM stock solutions on the day of drug addition and frozen at −20° C. Serial dilutions of these 20 mM stock solutions are made in complete growth medium such that 100 μL of these drug solutions in medium, of final concentrations equaling 0.01, 0.1, 1, 10 and 100 μM can be added to the cells in triplicate. Standard drugs whose anti-cancer activity has been well documented and which are regularly used are doxorubicin and SAHA.
(§3) For To measurement, 24 hours after seeding the cells, 10 μL of 3-(4,5-Dimethyl-2-thiazolyl)-2,5-diphenyl-2H-tetrazolium (MTT) solution per well is added and incubation carried out for 3 hours at 37° C., 5% CO2, 95% air and 100% relative humidity, protected from light. Cells incubated with compounds for 48 hours are treated similarly except with the addition of 20 μL MTT solution per well and a subsequent incubation under the same conditions. After 3 hours of MTT incubation, well contents are aspirated carefully followed by addition of 150 μL DMSO per well. Plates are agitated to ensure solution of the formazan crystals in DMSO and absorbance read at 570 nm. […]

HCT 116 cells = test: Anti-cancer screen (MTT), HCT116; type: cell-based; conditions: Homo sapiens, HCT-116, HCT116 cells, 48 hours, MTT; for GI50: concentration to decrease % growth by 50%; for IC100: concentration to decrease % growth by 100%, read-out: HCT116 TGI; for LC50: concentration to decrease % growth by 150%
Method: as §1, §2, §3

MDAMB231/U251 = test: Anti-cancer screen (MTT), MDAMB231/U251; type: cell-based; conditions: MDAMB231/U251 cells, 48 hours; for GI50: concentration to decrease % growth by 50%; for IC100: concentration to decrease % growth by 100%, read-out: MDAMB231/U251 TGI; for LC50: concentration to decrease % growth by 150%
Method: as §1, §2, §3

[1] = tested on: NCIH460, HCT116, MDAMB231/U251; test: Anti-cancer screen, mean GI50 over the cell lines; type: cell-based; conditions: in µM
Method: as §1, §2, §3

[2] = tested on: HDAC (Mouse Liver Extract); test: Histone Deacetylase (HDAC) Inhibition Assay using Boc-Lys (Ac)-AMC Substrate; type: biochemical; conditions: mouse liver enzyme, NA = No Activity; for HDAC Inhibition 1 μM / HDAC Inhibition 10 μM: in % (unit assumed)
Excerpt: HDAC Activitv Screening: Histone Deacetylase (HDAC) Inhibition Assay using Boc-Lys (Ac)-AMC Substrate:
Inhibition of HDAC has been implicated to modulate transcription and to induce apoptosis or differentiation in cancer cells. The fluorometric assay provides a fast and fluorescence based method that eliminates radioactivity, extractions or chromatography, as used in traditional assays. The assay based on two steps. First, the HDAC fluorometric substrate, which comprises an acetylated lysine side chain, is incubated with a sample containing HDAC activity (Mouse Liver Extract). Deacetylation of the substrate sensitizes the substrate, in the second step; treatment with the Trypsin stop solution produces a fluorophore that can be easily analyzed using fluorescence plate reader.
Assay was done in 96 well black microplate and total volume of the assay is 100 ul. Mouse liver enzyme is diluted 1:6 with HDAC buffer. Enzyme cocktail made of 10 ul of diluted enzyme and 30 ul of HDAC buffer. 40 ul of enzyme cocktail dispensed into each well. 10 ul of different concentrations of inhibitor added in to each well, except enzyme control well. Preincubated the plate at 30° C. for 5 minutes. The HDAC reaction is started by adding 50 ul of HDAC substrate (Boc-Lys (Ac)-AMC Substrate) solution. Incubated the plate at 30° C. for 30 minutes. Adding 100 ul of Trypsin stop solution stops the reaction. The plate is incubated again at 30° C. for 20-30 minutes. The release of AMC is monitored by measuring the fluorescence at excitation wavelength of 365 or 360 nm and emission wavelength of 440 or 460 nm. Buffer and substrate alone kept for blank subtraction. (Dennis Wegener et al, Anal. Biochem, 321, 2003, 202-208).

Compound | GI50 (NCIH 460 cells) | IC100 (NCIH 460 cells) | LC50 (NCIH 460 cells) | GI50 (HCT 116 cells) | IC100 (HCT 116 cells) | LC50 (HCT 116 cells) | GI50 (MDAMB231/U251) | IC100 (MDAMB231/U251) | LC50 (MDAMB231/U251) | Mean GI50 [1] | HDAC Inhibition 1 μM [2] | HDAC Inhibition 10 μM [2] | IC50 [2]
Cc1cccc2sc(NC(=O)CN3CCN(C(=O)CCCCCNO)CC3)nc12 [Example 27] | 8 µM | > 100 µM | > 100 µM | 8 µM | > 100 µM | > 100 µM | 28 µM | 80 µM | > 100 µM | 14.70 |  |  | 
CC(=O)SCCCCC(=O)N1CCN(CC(=O)Nc2nc3ccccc3s2)CC1 [Example 8, 2-[4-(5-Thioacetylpentanoyl)piperazin-1-yl]-N-(1,3-benzothiazol-2-yl)acetamide] | 18 µM | > 100 µM | > 100 µM | 7 µM | 80 µM | > 100 µM | > 100 µM | > 100 µM | > 100 µM | 12.50 | 31.41 | 69.85 | 
COc1cc(CNC(=O)CN2CCN(C(=O)CCCCSC(C)=O)CC2)cc(OC)c1 [Example 20] | > 100 µM | > 100 µM | > 100 µM | > 100 µM | > 100 µM | > 100 µM | > 100 µM | > 100 µM | > 100 µM | >100 | 26.4 | 55.4 | 
CC(=O)SCCCCC(=O)N1CCN(CC(=O)Nc2nc(C)cs2)CC1 [Example 4, 2-[4-(5-Thioacetylpentanoyl)piperazin-1-yl]-N-(4-methyl-1,3-thiazol-2-yl)acetamide] | 9 µM | 91 µM | > 100 µM | 60 µM | > 100 µM | > 100 µM | 45 µM | > 100 µM | > 100 µM | 38 | 15.82 | 50.88 | 
O=C(CCCCCCC(=O)N1CCN(CC(=O)Nc2cccc(F)c2)CC1)NO [Example 36, 8-{4-[2-(3-Fluorophenyl-2-ylamino)-2-oxoethyl]piperazin-1-yl}-N-hydroxy-8-oxo octanamide] | 52 µM | > 100 µM | > 100 µM | 40 µM | 82 µM | > 100 µM | 27 µM | 62 µM | > 100 µM | 39.67 | 98.2 | 72.99 | 950 nM
COC(=O)[C@H](CO)NC(=O)CCCCCCC(=O)N1CCN(CC(=O)Nc2nc3ccc(C)cc3s2)CC1 [Example 30] | 42.5 µM | 80.5 µM | > 100 µM | 8 µM | 51 µM | 79 µM | 35 µM | 56 µM | 82 µM | 28.50 |  | 4.65 | 
CC(=O)SCCCCC(=O)N1CCN(CC(=O)Nc2cccc(F)c2)CC1 [Example 23, 2-[4-(5-Thioacetylpentanoyl)piperazin-1-yl]-N-(6-fluorophenyl-2-yl)acetamide] | > 100 µM | > 100 µM | > 100 µM | 63 µM | > 100 µM | > 100 µM | 38 µM | 78 µM | > 100 µM | >100 | 47.2 | 81.7 | 4800 nM
CC(=O)ON(C(C)=O)C(=O)CCCCCCC(=O)N1CCN(CC(=O)Nc2nc3ccc(C)cc3s2)CC1 [Example 38] | 40 µM | > 100 µM | > 100 µM | 25 µM | 88 µM | > 100 µM | 0.4 µM | 30 µM | > 100 µM | >100 | 37.83 | 84.23 | 
Cc1ccc2nc(NC(=O)CN3CCN(C(=O)CCCCCCC(=O)NO)CC3)sc2c1 [Example 35, 8-{4-[2-(6-Methyl-1,3-benzothiazol-2-ylamino)-2-oxoethyl]piperazin-1-yl}-N-hydroxy-8-oxo octanamide] | 56 µM | 100 µM | > 100 µM | 8 µM | 40 µM | 92 µM | 5 µM | 45 µM | > 100 µM | 23 | 68.3 | 96.93 | 
CC(=O)SCCCCCC(=O)N1CCN(C(=O)CN2CCOCC2)CC1 [Example 2] | > 100 µM | > 100 µM | > 100 µM | > 100 µM | > 100 µM | > 100 µM | > 100 µM | > 100 µM | > 100 µM | >100 | 8.31 | 34.56 | 
CC(=O)SCCCCCC(=O)N1CCN(CC(=O)Nc2nc3c(C)cccc3s2)CC1 [Example 10, 2-[4-(6-Thioacetylhexanoyl)piperazin-1-yl]-N-(4-methyl-1,3-benzothiazol-2-yl)acetamide] | 0.5 µM | 2 µM | 95 µM | 3 µM | 50 µM | > 100 µM | 2 µM | 9 µM | > 100 µM | 1.80 | 54.06 | 87.16 | 1500 nM
CSCC[C@@H](N)C(=O)NCCCCCC(=O)N1CCN(CC(=O)Nc2nc3ccccc3s2)CC1 [Example 42] | 56 µM | > 100 µM | > 100 µM | 26 µM | 78 µM | > 100 µM | 99.5 µM | > 100 µM | > 100 µM | 61 |  |  | 
COc1cccc2sc(NC(=O)CN3CCN(C(=O)CCCCCN(OCc4ccccc4)C(C)=O)CC3)nc12 [Example 28, N-4-methoxy-1,3-benzothiazol-2-yl-2-{6-[6 (N-acetyl-O-benzyl)hexanoyl]piperazin-1-yl}acetamide] | 21 µM | > 100 µM | > 100 µM | 5.5 µM | 58 µM | > 100 µM | 0.08 µM | 9 µM | > 100 µM | 8.86 |  |  | 
